The record followed here is patent publication US20230263822A1, “MODULATION OF FACTOR 11 EXPRESSION” (Ionis Pharmaceuticals, Inc., priority 2008, published 2023).

This data set relates to human Factor 11 mRNA. The data set can be described thus: Antisense inhibition of human Factor 11 in HepG2 cells by microwalk gapmers, lipofectin, 75 nM (Example 3). It counts as cell-based. How it is done:
These gapmers were designed by creating gapmers shifted slightly upstream and downstream (i.e. “microwalk”) of the original gapmers from Table 3. Gapmers were also created with various motifs, e.g. 5-10-5 MOE, 3-14-3 MOE, and 2-13-5 MOE. These gapmers were tested in vitro. Cultured HepG2 cells at a density of 10,000 cells per well were transfected using lipofectin reagent with 75 nM antisense oligonucleotide. After a treatment period of approximately 24 hours, RNA was isolated from the cells and Factor 11 mRNA levels were measured by quantitative real-time PCR. Factor 11 mRNA levels were adjusted according to total RNA content, as measured by RIBOGREEN. Results are presented as percent inhibition of Factor 11, relative to untreated control cells.
The chimeric antisense oligonucleotides in Table 4 were designed as 5-10-5 MOE, 3-14-3 MOE, and 2-13-5 MOE gapmers. The first listed gapmers in Table 4 are the original gapmers (see Table 3) from which the remaining gapmers were designed via microwalk and are designated by an asterisk. The 5-10-5 gapmers are 20 nucleotides in length, wherein the central gap segment is comprised of 10 2′-deoxynucleotides and is flanked on both sides (in the 5′ and 3′ directions) by wings comprising 5 nucleotides each. The 3-14-3 gapmers are 20 nucleotides in length, wherein the central gap segment is comprised of 14 2′-deoxynucleotides and is flanked on both sides (in the 5′ and 3′ directions) by wings comprising 3 nucleotides each. The 2-13-5 gapmers are 20 nucleotides in length, wherein the central gap segment is comprised of 13 2′-deoxynucleotides. The central gap is flanked on the 5′ end with a wing comprising 2 nucleotides and on the 3′ end with a wing comprising 5 nucleotides. For each of the motifs (5-10-5, 3-14-3, and 2-13-5), each nucleotide in the 5′ wing segment and each nucleotide in the 3′ wing segment has a 2′-MOE modification. The internucleoside linkages throughout each gapmer are phosphorothioate (P=S) linkages. All cytidine residues throughout each gapmer are 5-methyl cytidines. “Target start site” indicates the 5′-most nucleotide to which the gapmer is targeted. “Target stop site” indicates the 3′-most nucleotide to which the gapmer is targeted. Each gapmer listed in Table 4 is targeted to SEQ ID NO: 1 (GENBANK Accession No. NM_000128.3).

Where [1] appears, read: HepG2, lipofectin, ~24 h, gapmers targeted to nucleobases 656 to 704 of SEQ ID NO: 1.
Setting [2] is: HepG2 cells, lipofectin, gapmers targeted to nucleobases 738 to 762 of SEQ ID NO: 1.
Setting [3] is: HepG2 cells, lipofectin, gapmers targeted to nucleobases 1018 to 1042 of SEQ ID NO: 1.
Where [4] appears, read: HepG2 cells, lipofectin, gapmers targeted to nucleobases 1062 to 1091 of SEQ ID NO: 1.

Strand notation (5' to 3'): a small letter for the sugar, then the base; units joined by * are phosphorothioate-linked, units joined directly phosphodiester-linked; [ ] holds rarer units or linkages, { } end groups; capitals alone tell only the bases. e = 2'-O-(2-methoxyethyl) (MOE); [5mC] = 5-methylcytosine; d = 2'-deoxy (DNA)

Turning to “416806 (antisense eA*eA*eA*eT*eG*dT*d[5mC]*dT*dT*dT*dG*dT*dT*dG*d[5mC]*eA*eA*eG*e[5mC]*eG) [compound 416806]”, the % inhibition (as a rule, the percentage by which the read-out fell short of the control) under setting [1] is reported as 86%.
For “416807 (antisense eT*eA*eA*eA*eT*dG*dT*d[5mC]*dT*dT*dT*dG*dT*dT*dG*e[5mC]*eA*eA*eG*e[5mC]) [compound 416807]”, under setting [1], the “% inhibition” value amounted to 51%.
Same read-out and setting: for “416808 (antisense eA*eT*eA*eA*eA*dT*dG*dT*d[5mC]*dT*dT*dT*dG*dT*dT*eG*e[5mC]*eA*eA*eG) [compound 416808]” the value was 55%; for “416809 (antisense e[5mC]*eA*eT*eA*eA*dA*dT*dG*dT*d[5mC]*dT*dT*dT*dG*dT*eT*eG*e[5mC]*eA*eA) [compound 416809]”, 86%; for “416810 (antisense e[5mC]*eA*e[5mC]*eA*eT*dA*dA*dA*dT*dG*dT*d[5mC]*dT*dT*dT*eG*eT*eT*eG*e[5mC]) [compound 416810]”, 68%.
Same read-out and setting: for “416811 (antisense e[5mC]*e[5mC]*eA*e[5mC]*eA*dT*dA*dA*dA*dT*dG*dT*d[5mC]*dT*dT*eT*eG*eT*eT*eG) [compound 416811]” the value was 84%.
Turning to “416812 (antisense eT*e[5mC]*e[5mC]*eA*e[5mC]*dA*dT*dA*dA*dA*dT*dG*dT*d[5mC]*dT*eT*eT*eG*eT*eT) [compound 416812]”, the “% inhibition” value under setting [1] came out at 59%.
Regarding “416813 (antisense eG*eT*e[5mC]*e[5mC]*eA*d[5mC]*dA*dT*dA*dA*dA*dT*dG*dT*d[5mC]*eT*eT*eT*eG*eT) [compound 416813]”, the “% inhibition” value under setting [1] came to 70%.
As to “416814 (antisense eA*eG*eG*eT*e[5mC]*d[5mC]*dA*d[5mC]*dA*dT*dA*dA*dA*dT*dG*eT*e[5mC]*eT*eT*eT) [compound 416814]”, the “% inhibition” value under setting [1] is 83%.
For the substance “416815 (antisense eT*eA*eG*eG*eT*d[5mC]*d[5mC]*dA*d[5mC]*dA*dT*dA*dA*dA*dT*eG*eT*e[5mC]*eT*eT) [compound 416815]”, the “% inhibition” value under setting [1] was determined as 63%.
Still for that read-out and setting: for “416816 (antisense e[5mC]*eT*eA*eG*eG*dT*d[5mC]*d[5mC]*dA*d[5mC]*dA*dT*dA*dA*dA*eT*eG*eT*e[5mC]*eT) [compound 416816]” the value was 79%; for “416817 (antisense eT*e[5mC]*eT*eA*eG*dG*dT*d[5mC]*d[5mC]*dA*d[5mC]*dA*dT*dA*dA*eA*eT*eG*eT*e[5mC]) [compound 416817]”, 74%.
Same read-out and setting: for “416818 (antisense eT*eG*eT*e[5mC]*eT*dA*dG*dG*dT*d[5mC]*d[5mC]*dA*d[5mC]*dA*dT*eA*eA*eA*eT*eG) [compound 416818]” the value was 76%; for “416819 (antisense eA*eT*eG*eT*e[5mC]*dT*dA*dG*dG*dT*d[5mC]*d[5mC]*dA*d[5mC]*dA*eT*eA*eA*eA*eT) [compound 416819]”, 56%.
As to “416820 (antisense e[5mC]*eA*eT*eG*eT*d[5mC]*dT*dA*dG*dG*dT*d[5mC]*d[5mC]*dA*d[5mC]*eA*eT*eA*eA*eA) [compound 416820]”, the “% inhibition” value under setting [1] came out at 77%.
Turning to “416821 (antisense eT*e[5mC]*eA*eT*eG*dT*d[5mC]*dT*dA*dG*dG*dT*d[5mC]*d[5mC]*dA*e[5mC]*eA*eT*eA*eA) [compound 416821]”, the “% inhibition” value under setting [1] is on record as 84%.
Same read-out and setting: for “416822 (antisense e[5mC]*eT*eT*e[5mC]*eA*dT*dG*dT*d[5mC]*dT*dA*dG*dG*dT*d[5mC]*e[5mC]*eA*e[5mC]*eA*eT) [compound 416822]” the value was 76%; for “416823 (antisense e[5mC]*e[5mC]*eT*eT*e[5mC]*dA*dT*dG*dT*d[5mC]*dT*dA*dG*dG*dT*e[5mC]*e[5mC]*eA*e[5mC]*eA) [compound 416823]”, 77%; for “416824 (antisense e[5mC]*e[5mC]*e[5mC]*eT*eT*d[5mC]*dA*dT*dG*dT*d[5mC]*dT*dA*dG*dG*eT*e[5mC]*e[5mC]*eA*e[5mC]) [compound 416824]”, 64%.
Same read-out and setting: for “416828 (antisense eT*eT*eA*eT*eG*d[5mC]*d[5mC]*d[5mC]*dT*dT*d[5mC]*dA*dT*dG*dT*e[5mC]*eT*eA*eG*eG) [compound 416828]” the value was 87%; for “416829 (antisense eT*eT*eT*eA*eT*dG*d[5mC]*d[5mC]*d[5mC]*dT*dT*d[5mC]*dA*dT*dG*eT*e[5mC]*eT*eA*eG) [compound 416829]”, 72%.
For “416830 (antisense eT*e[5mC]*e[5mC]*eG*eT*dG*d[5mC]*dA*dT*d[5mC]*dT*dT*dT*d[5mC]*dT*eT*eG*eG*e[5mC]*eA) [compound 416830]”, the “% inhibition” value under setting [2] was determined as 81%.
Same read-out and setting: for “416831 (antisense eA*eT*e[5mC]*e[5mC]*eG*dT*dG*d[5mC]*dA*dT*d[5mC]*dT*dT*dT*d[5mC]*eT*eT*eG*eG*e[5mC]) [compound 416831]” the value was 91%; for “416832 (antisense e[5mC]*eA*eT*e[5mC]*e[5mC]*dG*dT*dG*d[5mC]*dA*dT*d[5mC]*dT*dT*dT*e[5mC]*eT*eT*eG*eG) [compound 416832]”, 79%.
The same measure, in the same setting: for “416833 (antisense eT*e[5mC]*eA*eT*e[5mC]*d[5mC]*dG*dT*dG*d[5mC]*dA*dT*d[5mC]*dT*dT*eT*e[5mC]*eT*eT*eG) [compound 416833]” the value was 65%; for “416834 (antisense eG*eT*e[5mC]*eA*eT*d[5mC]*d[5mC]*dG*dT*dG*d[5mC]*dA*dT*d[5mC]*dT*eT*eT*e[5mC]*eT*eT) [compound 416834]”, 58%.
In the case of “416835 (antisense eA*e[5mC]*e[5mC]*eG*eG*dG*dA*dT*dG*dA*dT*dG*dA*dG*dT*eG*e[5mC]*eA*eG*eA) [compound 416835]”, the “% inhibition” value under setting [3] turned out to be 83%.
On the same count and under the same terms, for “416836 (antisense eA*eA*e[5mC]*e[5mC]*eG*dG*dG*dA*dT*dG*dA*dT*dG*dA*dG*eT*eG*e[5mC]*eA*eG) [compound 416836]” the value was 89%; for “416837 (antisense e[5mC]*eA*eA*e[5mC]*e[5mC]*dG*dG*dG*dA*dT*dG*dA*dT*dG*dA*eG*eT*eG*e[5mC]*eA) [compound 416837]”, 90%.
Consider “416839 (antisense eG*eA*eT*eT*e[5mC]*dT*dT*dT*dG*dG*dG*d[5mC]*d[5mC]*dA*dT*eT*e[5mC]*e[5mC]*eT*eG) [compound 416839]”, for which the “% inhibition” value under setting [4] is 89%.
Still for that read-out and setting: for “416840 (antisense eA*eG*eA*eT*eT*d[5mC]*dT*dT*dT*dG*dG*dG*d[5mC]*d[5mC]*dA*eT*eT*e[5mC]*e[5mC]*eT) [compound 416840]” the value was 85%; for “416841 (antisense eG*eA*eG*eA*eT*dT*d[5mC]*dT*dT*dT*dG*dG*dG*d[5mC]*d[5mC]*eA*eT*eT*e[5mC]*e[5mC]) [compound 416841]”, 87%; for “416843 (antisense eT*eT*eT*eG*eA*dG*dA*dT*dT*d[5mC]*dT*dT*dT*dG*dG*eG*e[5mC]*e[5mC]*eA*eT) [compound 416843]”, 89%.
Same read-out and setting: for “416844 (antisense e[5mC]*eT*eT*eT*eG*dA*dG*dA*dT*dT*d[5mC]*dT*dT*dT*dG*eG*eG*e[5mC]*e[5mC]*eA) [compound 416844]” the value was 90%; for “416845 (antisense eT*e[5mC]*eT*eT*eT*dG*dA*dG*dA*dT*dT*d[5mC]*dT*dT*dT*eG*eG*eG*e[5mC]*e[5mC]) [compound 416845]”, 86%.
Regarding “416846 (antisense eT*eT*e[5mC]*eT*eT*dT*dG*dA*dG*dA*dT*dT*d[5mC]*dT*dT*eT*eG*eG*eG*e[5mC]) [compound 416846]”, the “% inhibition” value under setting [4] came to 72%.
On the same count and under the same terms, for “416847 (antisense eT*eT*eT*e[5mC]*eT*dT*dT*dG*dA*dG*dA*dT*dT*d[5mC]*dT*eT*eT*eG*eG*eG) [compound 416847]” the value was 50%.
For the substance “416868 (antisense eA*eA*eT*dG*dT*d[5mC]*dT*dT*dT*dG*dT*dT*dG*d[5mC]*dA*dA*dG*e[5mC]*eG*e[5mC]) [compound 416868]”, the “% inhibition” value under setting [1] stood at 93%.
“416869 (antisense eA*eA*eA*dT*dG*dT*d[5mC]*dT*dT*dT*dG*dT*dT*dG*d[5mC]*dA*dA*eG*e[5mC]*eG) [compound 416869]”: the “% inhibition” value under setting [1] stood at 81%.
